According to patent US4672063A, “Antiallergic 5-alkyl-1-phenyl-2-piperazinoalkylpyrazolin-3-one compounds” (Kali-Chemie Pharma GmbH, priority 1984, dated 1987):

Legend:
[1] = tested on: carrageenin edema of the paw; assay: Inhibition of carrageenin paw edema in the rat; format: in vivo, rat (Wistar); settings: po, 100 mg/kg p.o., 3 hours after irritant, read-out: % Inhibition of carageenin paw edema in the rat
Description: Description of the test method to determine the inhibiting effect on the carrageenin edema of the paw in the rats according to the method of Winter et al (Proc. Soc. Exp. Biol. Med. 111 (1962) 544-547).
Male Wistar rates with a body weight of approximately 120 to 140 g are used. A dose of 100 mg/kg of the test substance suspended in a volume of 0.5 ml per 100 g body weight of a 1% methyl cellulose solution Tylose®, American Hoechst Corp., Somerville, NJ) is administered per os.
Only the Tylose® solution is administered to a control group. One hour later, to initiate the inflammation, 0.1 ml of a 1% suspension of carageenin (Satiagum® E) in an isotonic solution of sodium chloride are administered as an irritant by intraplantar injection into the right rear paw. An identical volume of isotonic sodium chloride solution is injected into the left rear paw. Both before and also 3 hours after the administration of the irritant, the volume of the individual rat paws is measured plethysmometrically and the volume of swelling of the paw after administration of carrageenin is determined compared with the paw which was only treated with sodium chloride solution. The inhibition of edema formation brought about by the test substances in the treated animals is indicated in percentage compared with the animals of the untreated control group.

[2] = tested on: serotonin induced anaphylactoidal reaction; assay: Inhibition of serotonin-induced anaphylactoid cutaneous reaction in the rat, test substance p.o.; format: in vivo, rat (Sprague-Dawley); settings: po, 1 μg serotonin intradermally, read-out: ED50 inhibiting effect, serotonin induced anaphylactoidal reaction
Description: (§1) 2. Determining the inhibition of passive cutaneous anaphylaxis (PCA) and the inhibition of anaphylactoid cutaneous reactions induced by histamine and by serotonin.
(§2) The determination of the inhibition of passive cutaneous anaphylaxis and the anaphylactoid cutaneous reactions induced by histamine and by serotonin, are carried out, as set forth below, according to the method of Martin and Baggiolini (Naunyn-Schmeiedeberg's Archives of Pharmacology 316 (1981) 186-189).
(§3) For passive sensitizing against ovalbumin, male Sprague-Dawley rates (body weight 150 to 165 g) are injected intradermally on a shaved part of the back with 0.05 ml of a 1:2.5 dilution of antiovalbumin serum, rich in IgE, in physiological sodium chloride solution.
(§4) 24 hours after the sensitizing, solutions of the test substances are administered orally to the rats. For comparison, a control group receives only the solvent.
(§5) To trigger the histamine-induced and serotonin-induced anaphylactoid reactions of the skin, the animals are injected intradermally 30 minutes later on a second shaved part of the back with a solution of 40 μg histamine in 0.05 ml physiological sodium chloride solution and on a third shaved part of the back with a solution of 1 μg serotonin in 0.05 physiological sodium chloride solution.
(§6) Immediately thereafter 1.25 mg (-~8 mg/kg) ovalbumin to trigger the anaphylactic reaction, and 4 mg (-~26.4 mg/kg) of a blue dye dissolved in 0.5 ml phosphate-buffered physiological sodium chloride solution are administered i.v. to the animals.
(§7) After 30 minutes the animals are killed, the skin is removed and in the individual blue patches the quantity of dye contained therein is determined separately. According to the method of Mordelet-Danbrine et al (Therapie 29 (1974) 851-862) the dye is extracted from the individual patches in each case with 2.5 ml dimethylformamide at a temperature of 37° C. for 4 days and the quantity of dye obtained in each case in the extraction solution is determined by spectrophotometric measurement. The doses of the test substances which cause a 50% reduction in the dye concentration compared with the control group are calculated as ED50 values.

[3] = tested on: passive cutaneous anaphylaxis; assay: Inhibition of passive cutaneous anaphylaxis (PCA) in the rat, test substance p.o.; format: in vivo, rat (Sprague-Dawley); settings: po, 50% reduction in dye concentration vs control, read-out: ED50 inhibiting effect, passive cutaneous anaphylaxy
Description: as §1
For the preparation of an antiovalbumin serum, rich in IgE, which is used in the test, according to the method of Lehrer et al (J. Immunol. 116, (1976) 178-182) and Pauwels et al (Ann. Immunol. 230C., (1979), 49-58), Sprague-Dawley rats are sensitized by i.p. injection of 1 mg ovalbumin and 1 ml Bordetella pertussis suspension (vaxicoq, Merieux 3×10^10 organisms/ml). After 20 days the animals are given an injection of 10 mg ovalbumin in the same way, but without any additive. After a further 4 days, blood is removed from the animals and the blood is centrifuged. The antiserum thus obtained is stored at -20° C. and adjusted according to the method of Goose et al (Immunology 16 (1968) 749-760).
as §2, §3, §4, §6, §7

[4] = tested on: peritonal mast cells of rats; assay: In vitro inhibition of anaphylactically caused histamine release from peritonal mast cells of rats; format: cell-based, rat (Sprague-Dawley); settings: Rattus norvegicus, Mast cell; ovalbumin trigger, 1 minute preincubation at 37° C.; read-out: EC50 in vitro inhibiting effect with respect to anaphylactically caused histamine release from mast cells of the rat
Description: 3. Determining the inhibiting effect in vitro on the release of histamine, caused anaphylactically, from peritonal mast cells of rats.
In order to obtain the peritonal mast cells, Sprague-Dawley rats are killed by inhalation of ether and immediately after cessation of breathing has occurred, 15 ml of a cold solution of 1 mg/ml human serum albumin in phosphate-buffered sodium chloride solution are injected into the abdominal cavity. The peritonal fluid is then removed and the mast cells are separated therefrom by centrifuging and are suspended in phosphate-buffered sodium chloride solution, whereafter the suspension is adjusted to a mast cell concentration of 5×10^5 per ml.
The mast cell suspension, divided up into samples each of 100 μl, is introduced into test-tubes and each sample, for passive sensitizing, is mixed with 100 μl of a 1:10 dilution of IgE-rich antiovalbumin serum in physiological sodium chloride solution (prepared according to the method described above) and is incubated for 30 minutes at a temperature of 37° C. (water bath). For the removal of unbonded IgE, the mast cells are then washed with 2 ml phosphate-buffered sodium chloride solution, centrifuged, and the supernatant fluid is discarded. Then the mast cells are incubated for 1 minute at 37° C. with 200 μl of a solution of the test substance in phosphate-buffered sodium chloride solution. A control group is only incubated with the same quantity of phosphate-buffered sodium chloride solution which is free of test substance.
After an incubation period of 3 minutes at 37° C., the reaction is stopped by rapid cooling in an ice bath. Then centrifuging takes place, the supernatant fluid is decanted and the histamine content therein is determined directly, without further extraction, spectrofluorimetrically according to the method of Shore (J. Pharmac. Exp. Ther. 127 (1959) 182-186).
For the extraction of the residual histamine still contained in the mast cells of the undecanted material, the latter is mixed with 2 ml phosphate-buffered sodium chloride solution and the suspension is heated in a boiling water bath. Then centrifuging takes place, the supernatant fluid is decanted and therein the residual histamine extracted from the mast cells is determined spectrofluorimetrically.
For each sample, the quantity of the released histamine is calculated as percentage proportion of the overall quantity of histamine (=total of released histamine and residual histamine retained in the mast cells).
The EC50 values are calculated to be those molar concentrations of the test substances in the respective test solutions which produce a 50% inhibition of the histamine release compared to the control group.

[5] = tested on: histamine-induced anaphylactoidal reaction; assay: Inhibition of histamine-induced anaphylactoid cutaneous reaction in the rat, test substance p.o.; format: in vivo, rat (Sprague-Dawley); settings: po, 40 μg histamine intradermally, read-out: ED50 inhibiting effect, histamine-induced anaphylactoidal reaction
Description: as §1, §2, §3, §4, §5, §6, §7

[6] = Acute 8-day toxicity, single i.p. application to male mice (LD50); settings: in vivo, ip, mouse i.p., 8 days
Description: The acute 8-day toxicity is determined after a single application i.p. to male mice (body weight 18 to 22 g). The mortality is noted for 8 days. The results are calculated as LD50 values, i.e. the dose which kills 50% of the animals.

SMILES | inhibition in vivo at 100 mg/kg [1] [%] | ED50 [2] [mg/kg] | ED50 [3] [mg/kg] | EC50 [4] [µM] | ED50 [5] [mg/kg] | LD50 at 192 h [6] [mg/kg]
CCc1cc(=O)n(CCCN2CCN(c3ccc(F)cc3)CC2)n1-c1ccccc1 [Example 1, 5-ethyl-1-phenyl-2-{3-[4-(4-fluorophenyl)-piperazin-1-yl]-propyl}-pyrazolin-3-one] | 52.8 | 2.6 | 2.5 | 50 | 4.7 | 117
Cc1cc(=O)n(CCCN2CCN(c3ccc(F)cc3)CC2)n1-c1ccccc1 [Example 8] | 56.4 | – | – | – | – | –
CCCc1cc(=O)n(CCCN2CCN(c3ccc(F)cc3)CC2)n1-c1ccccc1 [Example 12] | 49.5 | – | – | – | – | –
Cc1cc(=O)n(CCCN2CCN(c3ccc(F)cc3)CC2)n1-c1ccc([N+](=O)[O-])cc1 [Example 39] | 42.6 | 2.5 | 5.7 | – | 9.7 | 91.5
CCc1cc(=O)n(CCCN2CCN(c3ccc(F)cc3)CC2)n1-c1ccc([N+](=O)[O-])cc1 [Example 54] | 45.6 | 0.52 | 4.45 | 120 | 5.46 | 53.3
CC(=O)c1ccc(-n2c(C)cc(=O)n2CCCN2CCN(c3ccc(F)cc3)CC2)cc1 [Example 59] | 45.7 | – | – | – | – | –
Cc1cc(=O)n(CCCN2CCN(c3ccc(F)cc3)CC2)n1-c1ccc(C#N)cc1 [Example 60] | 62.4 | 2.49 | 1.86 | 200 | 3.32 | 91.5
Cc1cc(=O)n(CCCN2CCN(c3ccc(F)cc3)CC2)n1-c1ccc(Cl)cc1 [Example 62] | 63.9 | 3.64 | 5.47 | 62 | 7.04 | –
O=c1cc(C2CCCC2)n(-c2ccccc2)n1CCCN1CCN(c2ccc(F)cc2)CC1 [Example 63] | 42.2 | – | – | – | – | –
